# Measured values taken from PubChem BioAssay AID1963844 (Molecular Pharmacology Branch, DTP, NCI, 2024).
# System: 422866-222-R5-J1-PDC complex spheroid viability
# Assay: Anticancer human tumor 422866-222-R5-J1-PDC patient-derived pancreatic adenocarcinoma cell line growth inhibition [POLQ]
# Conditions: for IC50: curve of first compound; for viability, T/C: stronger effect = lower value
# Outline: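 Complex spheroid viability model combining PDC tumour cells with endothelial (HUVEC) and MSC stromal cells. Novobiocin, ART-558 or RP6685 were tested singly and in combination with standard and investigational anticancer drugs. Each was titrated in half-log steps from near clinical Cmax, or from 10 microM where Cmax was unknown.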
# [1] = second compound 0.0316 µM, first compound 0.0316 µM
# [2] = second compound 0.0316 µM, first compound 0.1 µM
# [3] = second compound 0.0316 µM, first compound 0.316 µM
# [4] = second compound 0.0316 µM, first compound 1 µM
# [5] = second compound 0.0316 µM, first compound 3.16 µM
# [6] = second compound 0.0316 µM, first compound 10 µM
# [7] = second compound 0.1 µM, first compound 0.0316 µM
# [8] = second compound 0.1 µM, first compound 0.1 µM
# [9] = second compound 0.1 µM, first compound 0.316 µM
# [10] = second compound 0.1 µM, first compound 1 µM
# [11] = second compound 0.1 µM, first compound 3.16 µM
# [12] = second compound 0.1 µM, first compound 10 µM
# [13] = second compound 0.316 µM, first compound 0.0316 µM
# [14] = second compound 0.316 µM, first compound 0.1 µM
# [15] = second compound 0.316 µM, first compound 0.316 µM
# [16] = second compound 0.316 µM, first compound 1 µM
# [17] = second compound 0.316 µM, first compound 3.16 µM
# [18] = second compound 0.316 µM, first compound 10 µM
# [19] = second compound 1 µM, first compound 0.0316 µM
# [20] = second compound 1 µM, first compound 0.1 µM
# [21] = second compound 1 µM, first compound 0.316 µM
# [22] = second compound 1 µM, first compound 1 µM
# [23] = second compound 1 µM, first compound 3.16 µM
# [24] = second compound 1 µM, first compound 10 µM
# [25] = second compound 3.16 µM, first compound 0.0316 µM
# [26] = second compound 3.16 µM, first compound 0.1 µM
# [27] = second compound 3.16 µM, first compound 0.316 µM
# [28] = second compound 3.16 µM, first compound 1 µM
# [29] = second compound 3.16 µM, first compound 3.16 µM
# [30] = second compound 3.16 µM, first compound 10 µM
# [31] = second compound 10 µM, first compound 0.0316 µM
# [32] = second compound 10 µM, first compound 0.1 µM
# [33] = second compound 10 µM, first compound 0.316 µM
# [34] = second compound 10 µM, first compound 1 µM
# [35] = second compound 10 µM, first compound 3.16 µM
# [36] = second compound 10 µM, first compound 10 µM
# 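Note: spheroids exposed to compounds for one week before readout.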
# 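Throughout, for viability, T/C: percent of DMSO vehicle wells luminescence so 100% = untreated viability.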
smiles,measurement,setting,value
C=CC(=O)N1CCN(c2nc(=O)n(-c3c(C)ccnc3C(C)C)c3nc(-c4c(O)cccc4F)c(F)cc23)C(C)C1 (stereo unspecified) + Cc1cccc(N(C)C(=O)C2C(O)CCN2c2nc(C)cc(C(F)(F)F)c2C#N)c1,IC50,second compound 0.0316 µM,< 0.0316 µM
same,IC50,second compound 0.1 µM,< 0.0316 µM
same,IC50,second compound 0.316 µM,< 0.0316 µM
same,IC50,second compound 1 µM,< 0.0316 µM
same,IC50,second compound 3.16 µM,< 0.0316 µM
same,IC50,second compound 10 µM,< 0.0316 µM
same,"viability, T/C",[1],29.6%
same,"viability, T/C",[2],26.5%
same,"viability, T/C",[3],24.8%
same,"viability, T/C",[4],22.2%
same,"viability, T/C",[5],23.5%
same,"viability, T/C",[6],27%
same,"viability, T/C",[7],27.8%
same,"viability, T/C",[8],25.2%
same,"viability, T/C",[9],25%
same,"viability, T/C",[10],23.5%
same,"viability, T/C",[11],21.2%
same,"viability, T/C",[12],29.3%
same,"viability, T/C",[13],34.9%
same,"viability, T/C",[14],22.1%
same,"viability, T/C",[15],25.3%
same,"viability, T/C",[16],26%
same,"viability, T/C",[17],22.8%
same,"viability, T/C",[18],25.5%
same,"viability, T/C",[19],30.3%
same,"viability, T/C",[20],25.7%
same,"viability, T/C",[21],26.1%
same,"viability, T/C",[22],21.8%
same,"viability, T/C",[23],26.7%
same,"viability, T/C",[24],27.4%
same,"viability, T/C",[25],32.3%
same,"viability, T/C",[26],28.7%
same,"viability, T/C",[27],31.4%
same,"viability, T/C",[28],25.9%
same,"viability, T/C",[29],23.7%
same,"viability, T/C",[30],25.7%
same,"viability, T/C",[31],35.3%
same,"viability, T/C",[32],28%
same,"viability, T/C",[33],25.1%
same,"viability, T/C",[34],26%
same,"viability, T/C",[35],32%
same,"viability, T/C",[36],28.3%
COc1ccc([C@@H](O)c2cc(-c3ncnc4cc(N5CCOCC5)ccc34)c(F)cc2Cl)nn1 + Cc1cccc(N(C)C(=O)C2C(O)CCN2c2nc(C)cc(C(F)(F)F)c2C#N)c1,IC50,second compound 0.0316 µM,2.6 µM
same,IC50,second compound 0.1 µM,4.62 µM
same,IC50,second compound 0.316 µM,2.42 µM
same,IC50,second compound 1 µM,1.92 µM
same,IC50,second compound 3.16 µM,1.65 µM
same,IC50,second compound 10 µM,2.28 µM
same,"viability, T/C",[1],91.6%
same,"viability, T/C",[2],92.2%
same,"viability, T/C",[3],77.4%
same,"viability, T/C",[4],62.1%
same,"viability, T/C",[5],49.1%
same,"viability, T/C",[6],35.5%
same,"viability, T/C",[7],92%
same,"viability, T/C",[8],81.3%
same,"viability, T/C",[9],83.2%
same,"viability, T/C",[10],64.5%
same,"viability, T/C",[11],54.5%
same,"viability, T/C",[12],42.3%
same,"viability, T/C",[13],108%
same,"viability, T/C",[14],86.3%
same,"viability, T/C",[15],70.9%
same,"viability, T/C",[16],61.3%
same,"viability, T/C",[17],43.9%
same,"viability, T/C",[18],41.4%
same,"viability, T/C",[19],89.9%
same,"viability, T/C",[20],81.1%
same,"viability, T/C",[21],85.9%
same,"viability, T/C",[22],58.5%
same,"viability, T/C",[23],44.6%
same,"viability, T/C",[24],33.3%
same,"viability, T/C",[25],79.8%
same,"viability, T/C",[26],90.7%
same,"viability, T/C",[27],80.3%
same,"viability, T/C",[28],56.4%
same,"viability, T/C",[29],43.1%
same,"viability, T/C",[30],37.1%
same,"viability, T/C",[31],93.3%
same,"viability, T/C",[32],83.8%
same,"viability, T/C",[33],73.5%
same,"viability, T/C",[34],59%
same,"viability, T/C",[35],46%
same,"viability, T/C",[36],37.6%
O=C(Nc1ccc(O)c(NS(=O)(=O)c2ccc(F)cc2)c1)c1ccc(-c2ccccc2)cc1 + Cc1cccc(N(C)C(=O)C2C(O)CCN2c2nc(C)cc(C(F)(F)F)c2C#N)c1,IC50,second compound 0.0316 µM,> 10 µM
same,IC50,second compound 0.1 µM,> 10 µM
same,IC50,second compound 0.316 µM,> 10 µM
same,IC50,second compound 1 µM,> 10 µM
same,IC50,second compound 3.16 µM,> 10 µM
same,IC50,second compound 10 µM,> 10 µM
same,"viability, T/C",[1],94.2%
same,"viability, T/C",[2],89.3%
same,"viability, T/C",[3],73.9%
same,"viability, T/C",[4],89.3%
same,"viability, T/C",[5],99.8%
same,"viability, T/C",[6],121%
same,"viability, T/C",[7],85.4%
same,"viability, T/C",[8],89.8%
same,"viability, T/C",[9],89%
same,"viability, T/C",[10],91.3%
same,"viability, T/C",[11],95.5%
same,"viability, T/C",[12],116%
same,"viability, T/C",[13],94.3%
same,"viability, T/C",[14],99%
same,"viability, T/C",[15],90.9%
same,"viability, T/C",[16],101%
same,"viability, T/C",[17],90.7%
same,"viability, T/C",[18],106%
same,"viability, T/C",[19],96%
same,"viability, T/C",[20],94.5%
same,"viability, T/C",[21],99.2%
same,"viability, T/C",[22],88.9%
same,"viability, T/C",[23],86.3%
same,"viability, T/C",[24],113%
same,"viability, T/C",[25],97.2%
same,"viability, T/C",[26],91.8%
same,"viability, T/C",[27],89.2%
same,"viability, T/C",[28],92.9%
same,"viability, T/C",[29],94.2%
same,"viability, T/C",[30],118%
same,"viability, T/C",[31],71.9%
same,"viability, T/C",[32],82.3%
same,"viability, T/C",[33],87.3%
same,"viability, T/C",[34],86.8%
same,"viability, T/C",[35],97.6%
same,"viability, T/C",[36],103%
